Activity calls are given as the source filed them. No rule for the calls is given here.
Test system: CCRIS mutagenicity, Ames/micronucleus/aberration tests
Experiment: CCRIS mutagenicity studies
[1] = Test System: AMES SALMONELLA TYPHIMURIUM, Strain/Indicator: TA98, Metabolic Activation: NONE, Method: STANDARD PLATE
[2] = Test System: AMES SALMONELLA TYPHIMURIUM, Strain/Indicator: TA100, Metabolic Activation: NONE, Method: STANDARD PLATE
[3] = Test System: AMES SALMONELLA TYPHIMURIUM, Strain/Indicator: TA98, Metabolic Activation: HAMSTER, LIVER, S-9, AROCLOR 1254 (10%), Method: PREINCUBATION
[4] = Test System: AMES SALMONELLA TYPHIMURIUM, Strain/Indicator: TA98, Metabolic Activation: NONE, Method: PREINCUBATION
[5] = Test System: AMES SALMONELLA TYPHIMURIUM, Strain/Indicator: TA98, Metabolic Activation: RAT, LIVER, S-9, AROCLOR 1254 (10%), Method: PREINCUBATION
[6] = Test System: AMES SALMONELLA TYPHIMURIUM, Strain/Indicator: TA100, Metabolic Activation: HAMSTER, LIVER, S-9, AROCLOR 1254 (10%), Method: PREINCUBATION
[7] = Test System: AMES SALMONELLA TYPHIMURIUM, Strain/Indicator: TA100, Metabolic Activation: NONE, Method: PREINCUBATION
[8] = Test System: AMES SALMONELLA TYPHIMURIUM, Strain/Indicator: TA100, Metabolic Activation: RAT, LIVER, S-9, AROCLOR 1254 (10%), Method: PREINCUBATION
[9] = Test System: AMES SALMONELLA TYPHIMURIUM, Strain/Indicator: TA1535, Metabolic Activation: HAMSTER, LIVER, S-9, AROCLOR 1254 (10%), Method: PREINCUBATION
[10] = Test System: AMES SALMONELLA TYPHIMURIUM, Strain/Indicator: TA1535, Metabolic Activation: NONE, Method: PREINCUBATION
[11] = Test System: AMES SALMONELLA TYPHIMURIUM, Strain/Indicator: TA1535, Metabolic Activation: RAT, LIVER, S-9, AROCLOR 1254 (10%), Method: PREINCUBATION
[12] = Test System: AMES SALMONELLA TYPHIMURIUM, Strain/Indicator: TA1537, Metabolic Activation: HAMSTER, LIVER, S-9, AROCLOR 1254 (10%), Method: PREINCUBATION
[13] = Test System: AMES SALMONELLA TYPHIMURIUM, Strain/Indicator: TA1537, Metabolic Activation: NONE, Method: PREINCUBATION
[14] = Test System: AMES SALMONELLA TYPHIMURIUM, Strain/Indicator: TA1537, Metabolic Activation: RAT, LIVER, S-9, AROCLOR 1254 (10%), Method: PREINCUBATION
[15] = Test System: AMES SALMONELLA TYPHIMURIUM, Strain/Indicator: TA100, Metabolic Activation: S-9, Method: STANDARD PLATE
[16] = Test System: AMES SALMONELLA TYPHIMURIUM, Strain/Indicator: TA1535, Metabolic Activation: NONE, Method: STANDARD PLATE
[17] = Test System: AMES SALMONELLA TYPHIMURIUM, Strain/Indicator: TA97, Metabolic Activation: NONE, Method: STANDARD PLATE

Measured: mutagenic call

O=c1c2c(O)cccc2oc2cc3c(c(O)c12)[C@@H]1C=CO[C@@H]1O3
inactive: Test System: AMES SALMONELLA TYPHIMURIUM, Strain/Indicator: TA98, Metabolic Activation: RAT, LIVER, S-9, PHENOBARBITAL, Method: STANDARD PLATE inactive; negative | Test System: AMES SALMONELLA TYPHIMURIUM, Strain/Indicator: TA100, Metabolic Activation: RAT, LIVER, S-9, PHENOBARBITAL, Method: STANDARD PLATE inactive; negative

CC(=O)OCCCCCCCCONC(=O)c1ccccc1
inactive: Test System: AMES SALMONELLA TYPHIMURIUM, Strain/Indicator: TA100, Metabolic Activation: RAT, S-9, AROCLOR, Method: STANDARD PLATE inactive; negative
active: [1] active; positive | [2] active; positive

CCOC(=O)c1ccccc1N
inactive: [3] inactive; negative | [4] inactive; negative | [5] inactive; negative | [6] inactive; negative | [7] inactive; negative | [8] inactive; negative | [9] inactive; negative | [10] inactive; negative | [11] inactive; negative | [12] inactive; negative | [13] inactive; negative | [14] inactive; negative

O=C(N=c1sn(C(=O)c2ccccc2)c2ccc([N+](=O)[O-])cc12)c1ccccc1
active: [15] active; positive

Nc1ccc2c(O)cc(S(=O)(=O)O)cc2c1
active: End Point: IN VITRO CHROMOSOMAL ABERRATIONS, Test System: CHL CELLS, Metabolic Activation: RAT, LIVER, S-9, SODIUM PHENOBARBITAL AND 5,6-BENZOFLAVONE active; positive
inactive: End Point: IN VITRO CHROMOSOMAL ABERRATIONS, Test System: CHL CELLS, Metabolic Activation: NONE inactive; negative

CCCCCNc1snc2ccccc12
inactive: [1] inactive; negative | Test System: AMES SALMONELLA TYPHIMURIUM, Strain/Indicator: TA98, Metabolic Activation: S-9, Method: STANDARD PLATE inactive; negative | [2] inactive; negative | [15] inactive; negative | [16] inactive; negative | Test System: AMES SALMONELLA TYPHIMURIUM, Strain/Indicator: TA1535, Metabolic Activation: S-9, Method: STANDARD PLATE inactive; negative | Test System: AMES SALMONELLA TYPHIMURIUM, Strain/Indicator: TA1537, Metabolic Activation: NONE, Method: STANDARD PLATE inactive; negative | Test System: AMES SALMONELLA TYPHIMURIUM, Strain/Indicator: TA1537, Metabolic Activation: S-9, Method: STANDARD PLATE inactive; negative

O=C(O)CC[C@H](NC(=O)COc1cc(Cl)c(Cl)cc1Cl)C(=O)O
inactive: [17] inactive; negative | Test System: AMES SALMONELLA TYPHIMURIUM, Strain/Indicator: TA97, Metabolic Activation: RAT, LIVER, S-9, AROCLOR 1254, Method: STANDARD PLATE inactive; negative | [1] inactive; negative | Test System: AMES SALMONELLA TYPHIMURIUM, Strain/Indicator: TA98, Metabolic Activation: RAT, LIVER, S-9, AROCLOR 1254, Method: STANDARD PLATE inactive; negative | [2] inactive; negative | Test System: AMES SALMONELLA TYPHIMURIUM, Strain/Indicator: TA100, Metabolic Activation: RAT, LIVER, S-9, AROCLOR 1254, Method: STANDARD PLATE inactive; negative | [16] inactive; negative | Test System: AMES SALMONELLA TYPHIMURIUM, Strain/Indicator: TA1535, Metabolic Activation: RAT, LIVER, S-9, AROCLOR 1254, Method: STANDARD PLATE inactive; negative | Test System: AMES SALMONELLA TYPHIMURIUM, Strain/Indicator: TA1538, Metabolic Activation: NONE, Method: STANDARD PLATE inactive; negative | Test System: AMES SALMONELLA TYPHIMURIUM, Strain/Indicator: TA1538, Metabolic Activation: RAT, LIVER, S-9, AROCLOR 1254, Method: STANDARD PLATE inactive; negative

Nc1cccc2ncccc12
inactive: [4] inactive; negative | [7] inactive; negative
active: Test System: AMES SALMONELLA TYPHIMURIUM, Strain/Indicator: TA98, Metabolic Activation: RAT, LIVER, S-9, KANECHLOR 500 OR PHENOBARBITAL AND BETA-NAPHTHOFLAVONE, Method: PREINCUBATION active; positive | Test System: AMES SALMONELLA TYPHIMURIUM, Strain/Indicator: TA100, Metabolic Activation: RAT, LIVER, S-9, KANECHLOR 500 OR PHENOBARBITAL AND BETA-NAPHTHOFLAVONE, Method: PREINCUBATION active; positive | Test System: AMES SALMONELLA TYPHIMURIUM, Strain/Indicator: TA100, Metabolic Activation: RAT, LIVER, S-9, PHENOBARBITAL AND 5,6-BENZOFLAVONE, Method: PREINCUBATION active; positive

OC1c2ccc3cccnc3c2C2OC2C1O (stereo not given)
active: [2] active; positive

CC(C)(C)NC(=O)[C@H]1CC[C@H]2[C@@H]3CC=C4C=C(C(=O)O)CC[C@]4(C)[C@H]3CC[C@]12C
inactive: [17] inactive; negative | Test System: AMES SALMONELLA TYPHIMURIUM, Strain/Indicator: TA97, Metabolic Activation: RAT LIVER S-9, AROCLOR 1254, Method: PREINCUBATION inactive; negative | [1] inactive; negative | Test System: AMES SALMONELLA TYPHIMURIUM, Strain/Indicator: TA98, Metabolic Activation: RAT LIVER S-9, AROCLOR 1254, Method: PREINCUBATION inactive; negative | [2] inactive; negative | Test System: AMES SALMONELLA TYPHIMURIUM, Strain/Indicator: TA100, Metabolic Activation: RAT LIVER S-9, AROCLOR 1254, Method: PREINCUBATION inactive; negative | Test System: AMES SALMONELLA TYPHIMURIUM, Strain/Indicator: TA102, Metabolic Activation: NONE, Method: STANDARD PLATE inactive; negative | Test System: AMES SALMONELLA TYPHIMURIUM, Strain/Indicator: TA102, Metabolic Activation: RAT LIVER S-9, AROCLOR 1254, Method: PREINCUBATION inactive; negative

CC(=O)/C(C)=N/O
inactive: [3] inactive; negative | [4] inactive; negative | [5] inactive; negative | [6] inactive; negative | [7] inactive; negative | [8] inactive; negative | [9] inactive; negative | [10] inactive; negative | [11] inactive; negative | [12] inactive; negative | [13] inactive; negative | [14] inactive; negative

Brc1ccc(CN2[C@@H]3c4ccccc4-c4ccccc4[C@@H]32)cc1 (stereo not given in full)
active: [2] active; positive
